Measurements reported in patent publication US6660251B1, “Galenic formulation containing biotin” (Merck Patent GmbH, priority 1999, dated 2003).

Key:
[1] = system: native human keratinocytes; test: Investigations on the lipid (fatty acid) content of native human keratinocytes under biotin; format: cell-based; settings: under the action of biotin
Protocol: HaCaT cells (human adult low-calcium high-temperature keratinocytes) and native human keratinocytes are cultured in Gibco's keratinocyte serum-free medium (SFM) with addition of BPE (25 μg/ml bovine hypophysis extract) and rEGF (0.1-0.2 ng/ml, recombinant epidermal growth factor) in 5% strength CO2 atmosphere (pH 7.2-7.4) at 36.6° C. in the low-calcium status (0.09 mM) in culture flasks (1 million cells/20 ml of SFM) and treated with the biotin solution (biotin dissolved in buffer according to McIloaine; medium concentration 10^−7-10^−3 mol/l and solvent control) on the 3rd day after sowing. On the 6th day, the confluent monolayer is harvested and the samples are prepared, individual pellets up to 3 million cells each being used for the lipid extraction and for the protein determination. […]
(§1) The lipid film is taken up in 4 ml of methanol (gradient grade for HPLC) and analyzed via GC-MS.
The extracted lipids of the keratinocytes are analyzed as methanolic solutions via GC-MS in order to quantify the fatty acids contained therein. […]
(§2) The protein content of the cells is determined according to the Lowry method using the protein assay kit. After preparation according to the procedure for the kit (P 5656), the measurement was carried out on an absorption reader at 690 nm.

skin of old people = settings: cited from earlier work
[2] = cited from earlier work
[3] = Penetration investigations on human skin ex vivo (FRANZ diffusion cell, 14C-biotin); format: in vitro ADME
From the text: To characterize the penetration behavior of biotin from different emulsions in excised human skin, FRANZ's diffusion cell is chosen as an in-vitro model. The selection of the model is based on the experience of the authors, who were able to detect correlating results between the in-vitro data of the model and the in-vivo results (R. J. Feldmann, et al. (1970): Absorption of some organic compounds through the skin in man. J. Invest. Dermatol. 54: 399-404: T. J. Franz (1975): Percutaneous absorption. On the relevance of in vitro data. J. Invest. Dermatol. 64: 190-195). The basic unit of the FRANZ diffusion cell consists of a double-walled, temperature-controllable glass section. The acceptor liquid which is continuously kept in the homogeneous state by stirring is situated therein. In direct contact with the acceptor is the sample material on a gauze, which is stabilized by a glass ring and a metal clamp. A glass cover functions as evaporation protection for the upkeep of largely constant hydration conditions during the investigation period. […] It is determined quantitatively in fractionation of the detachments in pairs (10×2). […] Following this, the samples are measured in the liquid scintillation counter with addition of two blank values. […]

HaCaT keratinocytes = test: Investigations on the lipid (fatty acid) content of HaCaT keratinocytes under biotin; format: cell-based, human
Protocol: HaCaT cells (human adult low-calcium high-temperature keratinocytes) and native human keratinocytes are cultured in Gibco's keratinocyte serum-free medium (SFM) with addition of BPE (25 μg/ml bovine hypophysis extract) and rEGF (0.1-0.2 ng/ml, recombinant epidermal growth factor) in 5% strength CO2 atmosphere (pH 7.2-7.4) at 36.6° C. in the low-calcium status (0.09 mM) in culture flasks (1 million cells/20 ml of SFM) and treated with the biotin solution (biotin dissolved in buffer according to McIloaine; medium concentration 10^−7-10^−3 mol/l and solvent control) on the 3rd day after sowing. On the 6th day, the confluent monolayer is harvested and the samples are prepared, individual pellets up to 3 million cells each being used for the lipid extraction and for the protein determination.
The cells are extracted following the lipid extraction of Bligh and Dyer (B. E. Bligh et al. (1959) A rapid method of total lipid extraction and purification. Can. J. Biochem. Physiol. 37: 911-917). For this, the cell pellet is treated with 20 ml of a solvent mixture (chloroform: methanol=2:1), homogenized with stirring and extracted with shaking in the dark for 30 min. It is then filtered through a sterile filter and the extract is concentrated on a vacuum rotary evaporator.
as §1
The extracted lipids of the keratinocytes are analyzed as methanolic solutions via GC-MS in order to quantify the fatty acids contained therein. 100 μl of the solution are reacted with 1 μl each of 0.2 M trimethylsulfionium hydroxide to give methyl esters in order to improve the evaporability.
as §2
The results of the influence of biotin on the fatty acid content of HaCaT keratinocytes are shown in FIGS. 1 to 4 for various concentrations of biotin (dissolved in buffer according to McIloaine). As control, the fatty acid content of the HaCaT keratinocytes after corresponding action of the buffer without biotin is moreover shown in FIGS. 1 to 4. The contents of the fatty acids myristic acid (MA), palmitic acid (PA), stearic acid (SA), oleic acid (OS) and linoleic acid (LA) are shown based on the protein content of the cells.

## O=C(O)CCCCC1SCC2NC(=O)NC21 (stereo not drawn) [biotin, hexahydro-2-oxiothieno [3,4-d]imidazole-4-valeric acid]
[1]
  concentration of linoleic acid (LA): absence of an increase
  concentration of the fatty acids myristic acid (MA), palmitic acid (PA), stearic acid (SA) and oleic acid (OA): Increases
Skin of old people; in vivo
  epithelial and histopathological changes in the areas treated: not possible to show any epithelial and histopathological changes at all
Skin of old people; topically applied formulations, biotin content 0.25% and 0.50%
  development of wrinkles on the skin of old people: visible reduction
[2]; continuous biotin therapy
  efficacy in soft, brittle and splitting nails, different forms of alopecia and atopic and seborrheic dermatitis: possible to show the efficacy
[2]; in vivo
  side effects: no side effects at all
[3]
  penetration of biotin through the horny layer of the human skin: does not penetrate or does not penetrate in an efficacious concentration
HaCaT keratinocytes; HaCaT keratinocytes, under the action of biotin
  concentration of linoleic acid (LA): absence of an increase
HaCaT keratinocytes; biotin concentration in the medium 10^−5 to 10^−3 mol/l
  lipid synthesis power of keratinocytes: increased
HaCaT keratinocytes; biotin concentration in the medium 10^−6 mol/l
  lipid synthesis power of keratinocytes: inefficacious
HaCaT keratinocytes; culture of HaCaT keratinocytes, under the action of biotin
  concentration of the fatty acids myristic acid (MA), palmitic acid (PA), stearic acid (SA) and oleic acid (OA): Increases
HaCaT keratinocytes; stimulation of lipid synthesis, from FIG. 2
  effective biotin concentration: 10^−5 mol/l
